Here are results for 3 compounds from patent US20240058321A1, “FARNESYL-TRANSFERASE INHIBITORS AND KRAS INHIBITORS FOR TREATING KRAS MUTANT CANCERS” (SEMMELWEIS EGYETEM, priority 2021, published 2024).

Like-named read-outs stand apart in the source and are kept apart here.

The test system of one assay is SW1573. The assay can be described thus: 2D combinational test (SRB growth inhibition, six days). The note with it: Homo sapiens.
The next assay has as its system MIAPACA2. The assay is described as above. The following applies: Homo sapiens, MIA PaCa-2, 144 h.
The next assay has as its system PF97. The description is as above. The following applies: Homo sapiens, 144 h.
Another assay relates to SW480. The description is as above. Format: cell-based, human. The note with it: Homo sapiens. The text has this: (§1) OD values were normalized to control. […] Data shown are results of three independent experiments.
A further assay has as its system SW1990. The description is as above. The note with it: Homo sapiens, SW1990, SW1990, read-out: Relative cell viability (MEAN). Format: cell-based, human.
Text: as §1

The test system of the next assay is cancer patients. The note with it: patients, cited from earlier work.

Description for MIAPACA2: (§2) H358, SW1573, H1792, MIAPACA2, SW1990, SNUC2B, SW480, A549 and HCT116 were purchased from ATCC, while SW48 KRAS G12C colorectal cell line and H838 KRAS G12D lung cell line was bought from Horizon Discovery Ltd. Most of the cell lines were heterozygous for mutant KRAS, as in human cases used to occur, but we also used cell lines with homozygous mutant KRAS.
(§3) Cells were cultured in DMEM (Lonza, Switzerland; with 4500 mg/dm3 glucose, pyruvate and L-glutamine) supplemented with 10% fetal calf serum (EuroClone) and 1% penicillin-streptomycin-amphotericin (Lonza) in tissue culture flasks in a humidified 5% CO2 atmosphere at 37° C.
(§4) For in vitro experiments drugs were dissolved in DMSO in 10 mM stock concentration and stored at −80° C.
(§5) Cells that reached 70-80% confluency were trypsinized and counted using Luna II Automated Cell Counter. Cells were plated in 5000-10000 cells/well density (depending on the growth rate of the given cell line) on a 24 well plate. Next day the medium was replaced to fresh medium supplemented with the inhibitors. After 6 days, the wells were washed with DPBS (Lonza) and the cells were fixed by 10% trichloroacetic acid and stained with Sulphorodamine-B (SRB) (Sigma) dye for 15 minutes. Plates then were repeatedly washed with 1% acetic acid to remove excess dye. Protein-bound SRB was then dissolved in 10 mM Tris buffer (pH=7,4) and OD was measured at 570 nm using a microplate reader (EL800, BioTec Instruments, Winooski, VT). OD values were normalized to control. Transformed data then were used to calculate combinational index (CI) values using Compusyn software as described in https://www.combosyn.com/index.html. Data shown are results of three independent experiments.
Description for PF97: as §2, §3, §4, §5
Description for SW1573: as §2, §3, §4, §5

With `C=CC(=O)N1CCN(c2nc(=O)n(-c3c(C)ccnc3C(C)C)c3nc(-c4c(O)cccc4F)c(F)cc23)[C@@H](C)C1` [AMG-510], the viability at 0.01 µM came to 99.5% in the assay with SW1573 (SW1573, read-out: Viability data (MEAN), SW1573, BPH1222 0 μM + AMG-510 10 nM) and 96.6% with SW1573 (SW1573, read-out: Viability data (MEAN), SW1573, SIMVASTATIN 0 μM + AMG-510 10 nM). The viability at 0.025 µM in the assay with SW1573 (SW1573, read-out: Viability data (MEAN), SW1573, BPH1222 0 μM + AMG-510 25 nM) was 99.8%; with SW1573 (SW1573, read-out: Viability data (MEAN), SW1573, SIMVASTATIN 0 μM + AMG-510 25 nM) it was 92.5%. The viability at 0.05 µM stood at 97.7% with SW1573 (SW1573, read-out: Viability data (MEAN), SW1573, BPH1222 0 μM + AMG-510 50 nM) and 89.9% in the assay with SW1573 (SW1573, read-out: Viability data (MEAN), SW1573, SIMVASTATIN 0 μM + AMG-510 50 nM).

With `C=C(F)C(=O)N1CCN(c2nc(OC[C@@H]3CCCN3C)nc3c2CCN(c2cccc4cccc(Cl)c24)C3)C[C@@H]1CC#N` [adagrasib], the viability at 0.025 µM in the assay with MIAPACA2 (read-out: Relative cell viability, 6/A2, 25 nM adagrasib + 0 nM tipifarnib) was 50.4%; with MIAPACA2 (read-out: Relative cell viability, 7/A2, 25 nM adagrasib + 0 nM lonafarnib), 50.8%; with SW1573 (SW1573, 144 h, read-out: Relative cell viability, 6/A3, SW1573, 25 nM adagrasib + 0 nM tipifarnib, six days), 77.3%; in the assay on SW1573 (SW1573, 144 h, read-out: Relative cell viability, 7/A3, SW1573, 25 nM adagrasib + 0 nM lonafarnib, six days), 79.4%; with PF97 (read-out: Relative cell viability, 6/A1, 25 nM adagrasib + 0 nM tipifarnib), 58.2%. For the same compound, the viability at 0.05 µM in the assay with MIAPACA2 (read-out: Relative cell viability, 6/A2, 50 nM adagrasib + 0 nM tipifarnib) was determined as 38.3%; with MIAPACA2 (read-out: Relative cell viability, 7/A2, 50 nM adagrasib + 0 nM lonafarnib), 37.5%. Moreover, the viability at 0.1 µM in the assay on MIAPACA2 (read-out: Relative cell viability, 6/A2, 100 nM adagrasib + 0 nM tipifarnib) worked out at 28.9%; with MIAPACA2 (read-out: Relative cell viability, 7/A2, 100 nM adagrasib + 0 nM lonafarnib), 27.3%; in the assay with SW1573 (SW1573, 144 h, read-out: Relative cell viability, 6/A3, SW1573, 100 nM adagrasib + 0 nM tipifarnib, six days) it was 67.2%; in the assay with SW1573 (SW1573, 144 h, read-out: Relative cell viability, 7/A3, SW1573, 100 nM adagrasib + 0 nM lonafarnib, six days) it was 72.5%; in the assay with PF97 (read-out: Relative cell viability, 6/A1, 100 nM adagrasib + 0 nM tipifarnib) it was 46.7%; in the assay on PF97 (read-out: Relative cell viability, 7/A1, 100 nM adagrasib + 0 nM lonafarnib), 29.2%. For the same compound, the viability at 0.01 µM in the assay on SW1573 (SW1573, 144 h, read-out: Relative cell viability, 6/A3, SW1573, 10 nM adagrasib + 0 nM tipifarnib, six days) is 85.3%; in the assay on SW1573 (SW1573, 144 h, read-out: Relative cell viability, 7/A3, SW1573, 10 nM adagrasib + 0 nM lonafarnib, six days), 86.6%; in the assay with PF97 (read-out: Relative cell viability, 7/A1, 10 nM adagrasib + 0 nM lonafarnib) it was 52.5%. Besides, the viability at 0.5 µM with PF97 (read-out: Relative cell viability, 6/A1, 500 nM adagrasib + 0 nM tipifarnib) was determined as 45.9%; in the assay on PF97 (read-out: Relative cell viability, 7/A1, 500 nM adagrasib + 0 nM lonafarnib), 19.4%.

Turning to `NC(=O)N1CCC(CC(=O)N2CCC([C@H]3c4ncc(Br)cc4CCc4cc(Cl)cc(Br)c43)CC2)CC1` [lonafarnib], in the assay on SW480 (500 nM lonafarnib + 0 μM BI2852, read-out: Relative cell viability (MEAN)), the viability at 0.5 µM was 72%. Moreover, the viability at 1 µM in the assay with SW480 (1000 nM lonafarnib + 0 μM BI2852, read-out: Relative cell viability (MEAN)) was determined as 63.9%; with SW1990 (1000 nM lonafarnib + 0 nM MRTX1133) it was 64.8%. For the same compound, the viability at 2 µM in the assay on SW480 (2000 nM lonafarnib + 0 μM BI2852, read-out: Relative cell viability (MEAN)) amounted to 55.7%; in the assay with SW1990 (2000 nM lonafarnib + 0 nM MRTX1133), 57.6%. The viability at 0.2 µM with SW1990 (200 nM lonafarnib + 0 nM MRTX1133) amounted to 83.1%. For the same compound, the Objective responses result in the assay on cancer patients (colorectal cancer) was “no objective responses”. Moreover, in the assay with cancer patients (ovarian cancer, in combination with chemotherapy), the “Progression-free or overall survival” value was “does not improve”.
